In PMC11997881, “Comprehensive Characterization of Bruton’s Tyrosine Kinase Inhibitor Specificity, Potency, and Biological Effects: Insights into Covalent and Noncovalent Mechanistic Signatures” (ACS Pharmacology & Translational Science, 2025):

Legend:
ITK = target: T1, ITK (Homo sapiens, UniProt Q08881); experiment: scanMAX binding POC, ITK; conditions: 1 μM
T1 sequence (Q08881 1-620): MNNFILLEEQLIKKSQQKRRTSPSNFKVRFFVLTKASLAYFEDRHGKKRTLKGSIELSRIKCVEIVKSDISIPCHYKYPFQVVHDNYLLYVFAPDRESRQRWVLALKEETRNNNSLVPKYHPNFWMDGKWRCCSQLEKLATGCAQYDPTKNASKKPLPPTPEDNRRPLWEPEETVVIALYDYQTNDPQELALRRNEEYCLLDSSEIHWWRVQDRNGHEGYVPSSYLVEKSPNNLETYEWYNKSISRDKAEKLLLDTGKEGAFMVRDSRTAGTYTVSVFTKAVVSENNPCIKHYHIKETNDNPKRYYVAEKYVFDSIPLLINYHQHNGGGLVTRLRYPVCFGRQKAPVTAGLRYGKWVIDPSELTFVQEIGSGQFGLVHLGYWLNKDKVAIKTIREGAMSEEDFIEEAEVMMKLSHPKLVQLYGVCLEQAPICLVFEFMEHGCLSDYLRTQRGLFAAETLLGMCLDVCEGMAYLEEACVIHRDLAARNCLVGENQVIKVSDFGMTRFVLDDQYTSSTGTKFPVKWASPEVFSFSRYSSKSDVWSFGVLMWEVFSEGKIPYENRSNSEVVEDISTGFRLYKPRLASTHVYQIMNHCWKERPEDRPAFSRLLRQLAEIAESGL
From the text: (§1) Comprehensive Characterization of Bruton’s Tyrosine Kinase Inhibitor Specificity, Potency, and
(§2) Biological Effects: Insights into Covalent and Non-Covalent Mechanistic Signatures
(§3) Antonia C. Darragh1, Andrew M. Hanna1, Justin H. Lipner2, Alastair J. King2, Nicole B. Servant1, Mirza Jahic1*
(§4) *To whom correspondence should be addressed: Mirza Jahic, e-mail address: Mirza.Jahic@discovery.eurofinsus.com
(§5) Supporting Table S1. Comparison of BTK inhibitor specificity to TEC family members. TEC family members are
(§6) Burton’s tyrosine kinase (BTK), tyrosine kinase expressed in hepatocellular carcinoma (TEC), bone marrow-
(§7) expressed kinase (BMX/ETK), and T cell-expressed kinase (TXK/RLK), and interleukin-2-inducible T cell kinase
(§8) A zero POC signifies that the compound

MKK7 = target: T2, MKK7 (Homo sapiens, UniProt O14733); experiment: scanMAX binding POC, MKK7; conditions: 1 μM
T2 sequence (O14733 1-419): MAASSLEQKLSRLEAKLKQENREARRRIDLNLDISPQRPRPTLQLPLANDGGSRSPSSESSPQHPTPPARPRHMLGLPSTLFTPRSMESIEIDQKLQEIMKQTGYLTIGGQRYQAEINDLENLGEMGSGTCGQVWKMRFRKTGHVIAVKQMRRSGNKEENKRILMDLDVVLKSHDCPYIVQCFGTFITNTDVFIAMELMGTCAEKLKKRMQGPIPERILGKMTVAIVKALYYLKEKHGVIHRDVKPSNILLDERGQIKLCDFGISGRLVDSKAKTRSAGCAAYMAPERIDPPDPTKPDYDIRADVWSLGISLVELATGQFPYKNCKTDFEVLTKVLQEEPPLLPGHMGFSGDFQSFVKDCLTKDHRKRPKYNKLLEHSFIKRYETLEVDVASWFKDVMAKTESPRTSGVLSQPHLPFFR

[1] = target: T3, JAK3 (JH1 catalytic domain) (Homo sapiens, UniProt P52333); experiment: scanMAX binding POC, JAK3; conditions: 1 μM
T3 construct: The JAK3 POC is for its JH1 catalytic domain

JNK1 (MAPK8) = JNK1 (MAPK8) (Homo sapiens, UniProt P45983); experiment: scanMAX binding POC, JNK1; conditions: 1 μM
Method: (§9) The compounds were diluted directly into the assays such that the final concentration of DMSO was 0.9%. No enzyme purification steps were performed on the protein extracts before adding them to the reaction mixture, and the protein extracts were diluted 10,000-fold in the final reaction mixture (the final DNA-tagged enzyme concentration was less than 0.1 nM). Binding assay mixtures were incubated at 25 °C with shaking for 1 h. […] The concentration of wild-type or mutant BTK in the eluates was then determined using quantitative PCR. […] Each assay’s affinity ligand concentration on the magnetic beads has been optimized to ensure that the true thermodynamic Kd values for competitor molecules were measured, as described in detail previously99.
(§10) Comparison of BTK inhibitor specificity to c-Jun N-terminal kinases (JNK1-3/MAPKP8-10).
(§11) a The percent of control (POC) is the percent of kinase that was competed off its control ligand relative to the positive and negative controls at the screening concentration56. A zero POC signifies that the compound

ERBB2 = ERBB2 (Homo sapiens, UniProt P04626); experiment: scanMAX binding POC, ERBB2; conditions: 1 μM
BTK [2] = target: T4, BTK (Homo sapiens, UniProt Q06187); experiment: scanMAX binding POC, BTK; conditions: 1 μM; zero POC = competition comparable to positive control
T4 construct: host or cells: transiently transfected HEK293 cells
From the text: as §1, §2, §3, §4, §5, §6, §7, §8

EGFR = EGFR (Homo sapiens, UniProt P00533); experiment: scanMAX binding POC, EGFR; conditions: 1 μM
JNK2 (MAPK9) = JNK2 (MAPK9) (Homo sapiens, UniProt P45984); experiment: scanMAX binding POC, JNK2; conditions: 1 μM
Method: as §9, §10, §11

ERBB4 = ERBB4 (Homo sapiens, UniProt Q15303); experiment: scanMAX binding POC, ERBB4; conditions: 1 μM
TEC = target: T5, TEC (Homo sapiens, UniProt P42680); experiment: scanMAX binding POC, TEC; conditions: 1 μM
T5 sequence (P42680 1-631): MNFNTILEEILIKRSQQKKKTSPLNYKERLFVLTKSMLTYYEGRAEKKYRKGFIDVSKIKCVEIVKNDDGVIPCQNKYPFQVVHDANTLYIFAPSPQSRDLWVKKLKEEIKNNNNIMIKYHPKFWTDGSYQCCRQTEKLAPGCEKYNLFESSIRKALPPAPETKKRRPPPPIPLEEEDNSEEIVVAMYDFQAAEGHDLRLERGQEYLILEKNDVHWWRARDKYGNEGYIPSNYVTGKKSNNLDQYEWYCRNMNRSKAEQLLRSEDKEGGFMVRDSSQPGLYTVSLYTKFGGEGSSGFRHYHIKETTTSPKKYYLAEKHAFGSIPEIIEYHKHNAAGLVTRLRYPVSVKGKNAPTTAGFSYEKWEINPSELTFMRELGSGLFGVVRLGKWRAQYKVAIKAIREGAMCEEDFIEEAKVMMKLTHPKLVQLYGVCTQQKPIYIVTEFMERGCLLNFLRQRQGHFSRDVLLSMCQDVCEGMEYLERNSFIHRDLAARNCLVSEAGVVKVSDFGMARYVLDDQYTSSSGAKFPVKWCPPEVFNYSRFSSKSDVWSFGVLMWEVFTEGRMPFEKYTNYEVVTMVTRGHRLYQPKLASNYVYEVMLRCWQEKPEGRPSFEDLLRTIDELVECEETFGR
From the text: as §1, §2, §3, §4, §5, §6, §7, §8

BLK = BLK (Homo sapiens, UniProt P51451); experiment: scanMAX binding POC, BLK; conditions: 1 μM
ERBB3 = ERBB3 (Homo sapiens, UniProt P21860); experiment: scanMAX binding POC, ERBB3; conditions: 1 μM
TXK = target: T6, TXK (Homo sapiens, UniProt P42681); experiment: scanMAX binding POC, TXK; conditions: 1 μM
T6 sequence (P42681 1-527): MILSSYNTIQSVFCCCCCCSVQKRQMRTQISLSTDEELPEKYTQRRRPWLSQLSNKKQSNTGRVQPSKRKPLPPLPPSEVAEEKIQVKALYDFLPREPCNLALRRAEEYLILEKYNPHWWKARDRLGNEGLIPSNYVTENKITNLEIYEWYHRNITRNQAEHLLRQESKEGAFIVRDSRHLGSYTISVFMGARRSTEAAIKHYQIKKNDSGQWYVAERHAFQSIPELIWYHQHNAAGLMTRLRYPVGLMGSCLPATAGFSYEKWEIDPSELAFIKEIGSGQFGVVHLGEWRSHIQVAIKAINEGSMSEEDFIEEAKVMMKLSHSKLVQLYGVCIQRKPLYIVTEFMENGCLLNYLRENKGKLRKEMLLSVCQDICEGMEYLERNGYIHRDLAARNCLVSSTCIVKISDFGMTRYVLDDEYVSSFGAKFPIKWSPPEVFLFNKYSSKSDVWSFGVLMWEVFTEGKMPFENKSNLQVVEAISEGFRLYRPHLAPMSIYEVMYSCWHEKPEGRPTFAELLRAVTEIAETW
From the text: as §1, §2, §3, §4, §5, §6, §7, §8

JNK3 (MAPK10) = JNK3 (MAPK10) (Homo sapiens, UniProt P53779); experiment: scanMAX binding POC, JNK3; conditions: 1 μM
Method: as §9, §10, §11

patients with R/R MCL = tested on: patients with R/R MCL; parameters: method as in NCT03494179; conditions: ref NCT03494179; cited from earlier work
BMX = target: T7, BMX (Homo sapiens, UniProt P51813); experiment: scanMAX binding POC, BMX; conditions: 1 μM
T7 sequence (P51813 1-675): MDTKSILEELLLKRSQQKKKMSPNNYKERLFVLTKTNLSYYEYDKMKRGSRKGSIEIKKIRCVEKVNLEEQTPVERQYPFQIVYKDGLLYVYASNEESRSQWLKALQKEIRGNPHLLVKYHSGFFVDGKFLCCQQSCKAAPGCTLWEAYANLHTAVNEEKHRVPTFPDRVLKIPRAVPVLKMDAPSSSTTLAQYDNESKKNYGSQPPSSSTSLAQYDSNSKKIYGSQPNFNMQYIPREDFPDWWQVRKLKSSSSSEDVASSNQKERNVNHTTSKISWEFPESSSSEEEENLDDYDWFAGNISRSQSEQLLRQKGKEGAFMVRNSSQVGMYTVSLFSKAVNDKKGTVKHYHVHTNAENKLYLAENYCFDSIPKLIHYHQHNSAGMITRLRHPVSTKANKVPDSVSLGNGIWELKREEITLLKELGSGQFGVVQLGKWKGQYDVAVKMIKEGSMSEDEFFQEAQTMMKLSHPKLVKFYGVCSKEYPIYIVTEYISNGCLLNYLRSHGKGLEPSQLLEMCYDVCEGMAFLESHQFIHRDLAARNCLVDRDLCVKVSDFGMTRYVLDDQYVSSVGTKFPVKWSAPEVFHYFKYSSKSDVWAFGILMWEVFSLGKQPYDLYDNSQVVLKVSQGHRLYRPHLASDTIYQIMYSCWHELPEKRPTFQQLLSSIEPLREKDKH
From the text: as §1, §2, §3, §4, §5, §6, §7, §8

BTK [3] = conditions: cited from earlier work
[4] = tested on: 468 kinases/kinase domains; conditions: scanMAX at 1 μM, POC <35
Method: The compounds were diluted directly into the assays such that the final concentration of DMSO was 0.9%. No enzyme purification steps were performed on the protein extracts before adding them to the reaction mixture, and the protein extracts were diluted 10,000-fold in the final reaction mixture (the final DNA-tagged enzyme concentration was less than 0.1 nM). Binding assay mixtures were incubated at 25 °C with shaking for 1 h. […] The concentration of wild-type or mutant BTK in the eluates was then determined using quantitative PCR.

Chain of ERBB2 (P04626 23-1255): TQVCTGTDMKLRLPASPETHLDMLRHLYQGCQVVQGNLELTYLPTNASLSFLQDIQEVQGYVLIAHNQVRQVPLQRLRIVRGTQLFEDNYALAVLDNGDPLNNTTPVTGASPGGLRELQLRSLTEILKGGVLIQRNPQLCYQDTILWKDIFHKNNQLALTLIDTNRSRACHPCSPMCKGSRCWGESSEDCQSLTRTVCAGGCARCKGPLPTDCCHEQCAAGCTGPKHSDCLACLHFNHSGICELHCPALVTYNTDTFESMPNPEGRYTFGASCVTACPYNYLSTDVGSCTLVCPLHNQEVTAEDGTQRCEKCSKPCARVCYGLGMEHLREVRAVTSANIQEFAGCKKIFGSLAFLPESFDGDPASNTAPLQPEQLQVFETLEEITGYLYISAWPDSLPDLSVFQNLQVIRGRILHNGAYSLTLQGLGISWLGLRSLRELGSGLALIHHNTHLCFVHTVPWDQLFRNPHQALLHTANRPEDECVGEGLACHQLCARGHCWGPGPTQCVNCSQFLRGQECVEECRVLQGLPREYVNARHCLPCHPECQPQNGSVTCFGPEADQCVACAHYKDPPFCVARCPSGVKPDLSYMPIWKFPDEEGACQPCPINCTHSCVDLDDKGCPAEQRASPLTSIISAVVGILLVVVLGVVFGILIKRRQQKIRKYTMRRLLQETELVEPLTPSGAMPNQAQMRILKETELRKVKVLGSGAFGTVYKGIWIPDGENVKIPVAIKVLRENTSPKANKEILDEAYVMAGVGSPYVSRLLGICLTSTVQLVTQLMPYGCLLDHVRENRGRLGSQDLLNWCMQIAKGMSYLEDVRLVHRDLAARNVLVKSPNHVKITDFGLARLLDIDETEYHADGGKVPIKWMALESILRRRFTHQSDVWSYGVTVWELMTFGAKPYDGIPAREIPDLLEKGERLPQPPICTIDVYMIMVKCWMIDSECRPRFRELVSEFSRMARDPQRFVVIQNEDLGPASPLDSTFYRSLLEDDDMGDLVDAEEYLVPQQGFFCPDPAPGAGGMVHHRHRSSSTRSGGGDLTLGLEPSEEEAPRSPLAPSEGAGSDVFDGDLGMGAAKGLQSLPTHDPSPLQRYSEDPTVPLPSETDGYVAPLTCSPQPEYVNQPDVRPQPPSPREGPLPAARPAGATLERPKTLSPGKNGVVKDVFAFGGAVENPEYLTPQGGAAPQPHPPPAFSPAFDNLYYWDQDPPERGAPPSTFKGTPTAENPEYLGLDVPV
Chain of JNK1 (MAPK8) (P45983 whole entry): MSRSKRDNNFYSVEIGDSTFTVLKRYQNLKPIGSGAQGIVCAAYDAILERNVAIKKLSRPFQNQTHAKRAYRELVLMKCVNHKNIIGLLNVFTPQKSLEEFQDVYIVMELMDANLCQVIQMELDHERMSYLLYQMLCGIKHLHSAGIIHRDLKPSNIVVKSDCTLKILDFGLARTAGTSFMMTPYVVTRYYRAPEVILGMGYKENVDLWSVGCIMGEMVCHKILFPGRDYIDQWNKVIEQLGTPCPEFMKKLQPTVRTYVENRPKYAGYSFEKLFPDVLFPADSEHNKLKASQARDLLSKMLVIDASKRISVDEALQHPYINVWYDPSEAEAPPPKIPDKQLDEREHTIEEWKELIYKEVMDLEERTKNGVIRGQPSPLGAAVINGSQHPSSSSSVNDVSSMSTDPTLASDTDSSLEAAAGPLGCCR
Chain of ERBB4 (Q15303 26-1308): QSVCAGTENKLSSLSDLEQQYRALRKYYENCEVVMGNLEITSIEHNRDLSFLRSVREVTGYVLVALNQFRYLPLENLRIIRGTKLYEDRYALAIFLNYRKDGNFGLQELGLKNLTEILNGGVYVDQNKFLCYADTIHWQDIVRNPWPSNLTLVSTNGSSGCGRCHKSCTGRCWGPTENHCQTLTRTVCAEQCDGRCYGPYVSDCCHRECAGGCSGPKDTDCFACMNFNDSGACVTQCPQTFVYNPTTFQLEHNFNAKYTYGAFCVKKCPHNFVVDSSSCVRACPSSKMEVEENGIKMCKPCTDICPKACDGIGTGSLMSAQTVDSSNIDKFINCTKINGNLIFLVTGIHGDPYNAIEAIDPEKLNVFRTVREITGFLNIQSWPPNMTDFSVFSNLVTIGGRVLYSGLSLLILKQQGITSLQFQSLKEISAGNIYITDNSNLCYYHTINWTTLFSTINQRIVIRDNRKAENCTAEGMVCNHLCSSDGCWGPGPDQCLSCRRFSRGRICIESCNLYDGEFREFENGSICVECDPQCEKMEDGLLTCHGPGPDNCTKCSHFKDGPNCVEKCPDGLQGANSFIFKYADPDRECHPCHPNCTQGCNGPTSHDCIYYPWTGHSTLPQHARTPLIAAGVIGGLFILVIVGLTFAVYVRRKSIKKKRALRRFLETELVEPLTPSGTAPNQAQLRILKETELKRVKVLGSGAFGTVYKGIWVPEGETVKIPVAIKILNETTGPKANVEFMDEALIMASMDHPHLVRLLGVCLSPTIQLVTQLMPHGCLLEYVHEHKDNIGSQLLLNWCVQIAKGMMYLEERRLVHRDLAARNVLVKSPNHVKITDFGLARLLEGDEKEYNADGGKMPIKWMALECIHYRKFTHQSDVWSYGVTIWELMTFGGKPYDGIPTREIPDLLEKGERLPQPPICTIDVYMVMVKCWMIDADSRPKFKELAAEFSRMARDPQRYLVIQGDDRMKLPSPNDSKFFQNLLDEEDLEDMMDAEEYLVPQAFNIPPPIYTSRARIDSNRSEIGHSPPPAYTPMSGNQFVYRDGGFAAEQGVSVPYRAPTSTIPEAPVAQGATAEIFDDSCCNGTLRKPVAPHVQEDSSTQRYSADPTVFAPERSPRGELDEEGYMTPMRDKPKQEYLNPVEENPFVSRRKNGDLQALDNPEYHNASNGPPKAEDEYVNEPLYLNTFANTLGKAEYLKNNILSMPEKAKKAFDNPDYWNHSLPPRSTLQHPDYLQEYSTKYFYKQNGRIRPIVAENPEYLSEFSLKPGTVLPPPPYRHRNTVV
T3 sequence (P52333 822-1111 limits assumed): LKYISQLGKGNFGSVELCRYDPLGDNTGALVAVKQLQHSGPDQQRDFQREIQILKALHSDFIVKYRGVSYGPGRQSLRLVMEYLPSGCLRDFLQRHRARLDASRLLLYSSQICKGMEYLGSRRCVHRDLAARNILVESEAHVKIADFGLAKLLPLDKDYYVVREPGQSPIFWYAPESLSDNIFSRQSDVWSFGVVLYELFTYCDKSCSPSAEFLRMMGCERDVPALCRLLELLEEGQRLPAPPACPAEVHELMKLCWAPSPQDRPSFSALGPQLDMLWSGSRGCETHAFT
Chain of ERBB3 (P21860 20-1342): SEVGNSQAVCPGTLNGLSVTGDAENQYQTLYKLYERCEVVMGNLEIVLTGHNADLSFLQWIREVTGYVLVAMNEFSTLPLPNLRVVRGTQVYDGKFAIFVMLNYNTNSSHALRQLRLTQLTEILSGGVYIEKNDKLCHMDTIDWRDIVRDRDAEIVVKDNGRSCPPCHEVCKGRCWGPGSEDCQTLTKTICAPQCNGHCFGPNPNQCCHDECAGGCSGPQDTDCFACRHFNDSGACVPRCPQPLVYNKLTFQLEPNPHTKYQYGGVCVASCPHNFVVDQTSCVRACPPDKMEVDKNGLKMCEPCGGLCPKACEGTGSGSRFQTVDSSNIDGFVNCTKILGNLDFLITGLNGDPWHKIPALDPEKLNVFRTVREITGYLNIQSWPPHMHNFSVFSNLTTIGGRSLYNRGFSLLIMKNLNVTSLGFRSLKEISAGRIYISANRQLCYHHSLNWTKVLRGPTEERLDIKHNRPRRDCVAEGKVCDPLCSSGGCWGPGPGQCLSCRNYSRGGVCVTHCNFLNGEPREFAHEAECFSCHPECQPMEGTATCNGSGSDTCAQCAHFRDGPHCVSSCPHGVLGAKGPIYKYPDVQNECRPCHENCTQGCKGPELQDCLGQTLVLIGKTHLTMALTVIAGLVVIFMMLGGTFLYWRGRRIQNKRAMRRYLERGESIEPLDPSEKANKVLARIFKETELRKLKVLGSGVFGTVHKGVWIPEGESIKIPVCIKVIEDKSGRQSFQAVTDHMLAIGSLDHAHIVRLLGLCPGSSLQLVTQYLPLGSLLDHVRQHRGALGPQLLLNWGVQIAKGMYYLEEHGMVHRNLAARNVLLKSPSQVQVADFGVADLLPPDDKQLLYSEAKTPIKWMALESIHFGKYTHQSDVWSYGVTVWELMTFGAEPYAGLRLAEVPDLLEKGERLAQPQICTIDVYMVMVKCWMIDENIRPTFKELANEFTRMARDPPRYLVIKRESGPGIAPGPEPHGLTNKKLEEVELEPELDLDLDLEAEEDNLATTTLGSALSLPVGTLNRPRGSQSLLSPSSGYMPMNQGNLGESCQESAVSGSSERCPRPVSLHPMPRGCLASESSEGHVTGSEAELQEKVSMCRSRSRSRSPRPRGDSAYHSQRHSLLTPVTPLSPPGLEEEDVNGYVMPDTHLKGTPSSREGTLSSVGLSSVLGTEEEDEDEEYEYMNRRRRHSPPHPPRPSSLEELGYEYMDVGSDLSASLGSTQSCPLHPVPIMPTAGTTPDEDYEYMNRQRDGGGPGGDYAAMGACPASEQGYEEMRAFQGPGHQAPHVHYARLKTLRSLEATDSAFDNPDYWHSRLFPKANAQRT
Chain of JNK2 (MAPK9) (P45984 whole entry): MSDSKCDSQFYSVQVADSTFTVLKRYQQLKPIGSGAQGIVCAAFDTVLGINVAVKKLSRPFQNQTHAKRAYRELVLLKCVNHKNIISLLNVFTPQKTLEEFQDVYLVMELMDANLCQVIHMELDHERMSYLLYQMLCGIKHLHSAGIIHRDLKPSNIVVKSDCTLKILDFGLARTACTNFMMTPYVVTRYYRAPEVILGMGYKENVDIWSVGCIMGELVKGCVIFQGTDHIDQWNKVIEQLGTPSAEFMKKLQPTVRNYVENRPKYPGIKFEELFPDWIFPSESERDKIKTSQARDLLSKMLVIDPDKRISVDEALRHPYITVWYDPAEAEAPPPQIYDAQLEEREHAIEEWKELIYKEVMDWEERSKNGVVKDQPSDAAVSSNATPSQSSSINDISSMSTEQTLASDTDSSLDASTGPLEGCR

Structure (SMILES) | ITK binding POC (ITK) | MKK7 binding POC (MKK7) | JAK3 binding POC [1] | JNK1 (MAPK8) POC (JNK1 (MAPK8)) | ERBB2 binding POC (ERBB2) | BTK binding POC (BTK [2]) | EGFR binding POC (EGFR) | JNK2 (MAPK9) POC (JNK2 (MAPK9)) | ERBB4 binding POC (ERBB4) | TEC binding POC (TEC) | BLK binding POC (BLK) | ERBB3 binding POC (ERBB3) | TXK binding POC (TXK) | JNK3 (MAPK10) POC (JNK3 (MAPK10)) | BMX binding POC (BMX) | other results
CC#CC(=O)N[C@H]1CCCN(c2c(F)cc(C(N)=O)c3[nH]c(C)c(C)c23)C1 [Branebrutinib] | 17% of control | 100% of control | 48% of control | 82% of control | 100% of control | 0% of control | 77% of control | 89% of control | 75% of control | 7.8% of control | 3.2% of control | 75% of control | 2% of control | 89% of control | – | –
C=CC(=O)N1CCC(CNc2ncnc(N)c2-c2ccc(Oc3ccccc3)cc2)CC1 [Evobrutinib] | – | 100% of control | 100% of control | 95% of control | 91% of control | – | 88% of control | 100% of control | 32% of control | 10% of control | – | 97% of control | 23% of control | 100% of control | – | –
C=CC(=O)N(C)CCOc1c(N)ncnc1-c1cc(F)cc(NC(=O)c2ccc(C3CC3)cc2F)c1C [Remibrutinib] | 97% of control | 100% of control | 100% of control | 93% of control | 100% of control | 0.15% of control | 99% of control | 99% of control | 100% of control | 20% of control | 100% of control | 100% of control | 97% of control | 100% of control | – | IC50 (BTK [3]): 1.3 nM; off-target hits [4]: one

Second part, led by results:

ITK binding POC (ITK) | MKK7 binding POC (MKK7) | JAK3 binding POC [1] | JNK1 (MAPK8) POC (JNK1 (MAPK8)) | ERBB2 binding POC (ERBB2) | BTK binding POC (BTK [2]) | EGFR binding POC (EGFR) | JNK2 (MAPK9) POC (JNK2 (MAPK9)) | ERBB4 binding POC (ERBB4) | TEC binding POC (TEC) | BLK binding POC (BLK) | ERBB3 binding POC (ERBB3) | TXK binding POC (TXK) | JNK3 (MAPK10) POC (JNK3 (MAPK10)) | BMX binding POC (BMX) | Structure (SMILES) | other results
100% of control | 100% of control | 89% of control | 100% of control | 100% of control | – | – | 100% of control | 96% of control | – | 52% of control | 88% of control | 34% of control | 100% of control | 27% of control | C=CC(=O)N1CCC(c2ccc(C(N)=O)c(-c3ccc(Oc4ccccc4)cc3)n2)CC1 [Orelabrutinib] | CR (patients with R/R MCL): 27.4%; PR (patients with R/R MCL): 53.8%; overall response rate (patients with R/R MCL): 81.1%
67% of control | 19% of control | 36% of control | 96% of control | 0% of control | – | – | 83% of control | – | – | 0.05% of control | 0.8% of control | 1.1% of control | 90% of control | 11% of control | C=CC(=O)N1CCC[C@@H](n2c(=O)n(-c3ccc(Oc4ccccc4)cc3)c3c(N)nccc32)C1 [Tolebrutinib] | MKK7 binding POC (MKK7; listed as tolebrutinib): weak hit
